The assay concerns skin model (EFT-400, MatTeK). In words: Electron microscope observation of skin model cultured with MMP inhibitor and/or heparanase inhibitor. It is filed as cell-based, human. The note with it: electron micrographs; result in words. The method, then: A skin model (EFT-400, MatTeK) was cultured in a specialized medium (EFT-400-ASY, MatTeK). Dimethylsulfoxide (DMSO) and ethanol were added to the specialized medium to a final concentration of 0.1% to serve as a control group, 50 mM 1-[4-(1H-benzoimidazol-2-yl)-phenyl]-3-[4-(1H-benzoimidazol-2-yl)-phenyl]-urea (DMSO solvent) was added to the specialized medium to a final concentration of 50 μM to serve as a heparanase inhibitor group, 10 mM N-hydroxy-2-[[(4-methoxyphenyl)sulfonyl] (3-picolyl)amino]-3-methylbutanamide hydrochloride (CGS27023A, ethanol solvent) was added to the specialized medium to a final concentration of 10 μM to serve as an MMP inhibitor group, and 50 mM 1-[4-(1H-benzoimidazol-2-yl)-phenyl]-3-[4-(1H-benzoimidazol-2-yl)-phenyl]-urea (DMSO solvent) and 10 mM CGS27023A (ethanol solvent) were added to the specialized medium to a final concentration of 50 μM and 10 μM, respectively, to serve as a heparanase inhibitor+MMP inhibitor group, followed by culturing.
The aforementioned skin model was cut in half after culturing, fixed with Zamboni's fixative and post-fixed with osmic acid, followed by embedding in resin in accordance with established methods. Tissues were observed by preparing ultra-thin sections and staining with uranyl acetate followed by observing with an electron microscope (JEM-1230, JEOL). […]

Regarding `COc1ccc(S(=O)(=O)N(Cc2cccnc2)C(C(=O)NO)C(C)C)cc1.Cl` (centres unmarked) [Group A, N-hydroxy-2-[[(4-methoxyphenyl)sulfonyl](3-picolyl)amino]-3-methylbutanamide hydrochloride], the “fibroblasts present in dermis directly beneath basement membrane (FIG. 2)” value is reported as “normal fibroblasts”.

Consider `O=C(Nc1ccc(-c2nc3ccccc3[nH]2)cc1)Nc1ccc(-c2nc3ccccc3[nH]2)cc1` [Group B, 1-[4-(1H-benzoimidazol-2-yl)-phenyl]-3-[4-(1H-benzoimidazol-2-yl)-phenyl]-urea], for which the “fibroblasts present in dermis directly beneath basement membrane (FIG. 2)” value is recorded as “normal fibroblasts”.

(Values after patent US20170071922A1, “ARTIFICIAL SKIN” (Shiseido Company, Ltd., priority 2010, published 2017).)
